Results as given in patent US11419953B2, “Reduced metastable complex macrocyclic contrast agents” (INVENTURE, LLC, priority 2020, dated 2022).

Columns and labels:
[1] = commercial product stored in bottle; cited from earlier work
[2] = cited from earlier work
[3] = Free Gd3+ release in vitro, comparative data (Example 6); format: physicochemical; settings: after 30 minutes at standard dosing

| SMILES | in-bottle measured free gadolinium [1] | stability lower at pH 7.4 than for the fully deprotonated complex [2] | In Vitro PPM (free GAD released) [3] |
| --- | --- | --- | --- |
| O=C([O-])CN1CCN(CC(=O)[O-])CCN(CC(=O)[O-])CCN(CC(=O)[O-])CC1.[Gd+3] [Gd-DOTA] | 10^13 Gd3+ ions in 100 ml of GCA product | 7 orders of magnitude | – |
| CNC[C@H](O)[C@@H](O)[C@H](O)[C@H](O)CO.O=C([O-])CN1CCN(CC(=O)[O-])CCN(CC(=O)O)CCN(CC(=O)[O-])CC1.[Gd+3] [DOTAREM, gadoterate meglumine] | – | – | 1,204 +/− 3.9 PPM |
